Data from patent US20080119483A1, “COMPOSITIONS AND METHODS FOR INHIBITING PROTOZOAN GROWTH” (priority 2006, published 2008).
“And” between values parts separate entries of the source, which are not always exact repeats. Equal values may be shown once. “Also recorded” adds a separate entry of the source. Read-outs that look alike come from different tables or passages of the source. Starred links: 1 amine or outer side, 2 acyl side, 3 side chain; linkers in the order of their positions; H or OH if unused. Non-standard residues stand in square brackets, D forms with d. Residues, ends and D or L forms follow the SMILES beside them. X1 = CC[C@@H](C)[C@@H](O[*:1])C(=O)[*:2]; NMeVal(β-OH) = CN[C@H](C(=O)O)C(C)(C)O; NMeF = CN[C@@H](Cc1ccccc1)C(=O)O; aIle = CC[C@@H](C)[C@H](N)C(=O)O; NMeV = CN[C@H](C(=O)O)C(C)C

Experiments:
[1] = system: L. major ads1^− promastigotes; experiment: Growth inhibition assay, EPL-null ads1^− mutant versus FV1 WT; assay type: cell-based, Leishmania major; details: 96 hours for ads1^−
Description: (§1) Wild type (WT) L. major LV39 clone 5 (Rho/SU/59/P), FV1 (MOHM/IL/80/Friedlin virulent clone 1), spt2^− (Δspt2::HYG/Dspt2::PAC), ads1^− (Δads1::HYG/Dads1::SAT), and spt2^−/+SPT2 (Δspt2::HYG/Dspt2::PAC/+pXG-SPT2) cells were grown in M199 with 10% FBS and supplements as described [Zhang, et al., 2003; Kapler, et al., 1990]. For growth inhibition assays, promastigotes were inoculated at 1.0×10^5 cells/ml (in T25 flasks, 5 ml of medium per flask) in various concentrations of drugs. All cultures contained equivalent amount of DMSO or methanol (0.1% or less, from drug stocks). After 48 or 96 (for ads1^− only) hours, culture densities were determined using a Coulter counter (Z1, Beckman) and effects of drugs on growth were assessed in relative to cultures grown in the absence of drugs.

[2] = system: L. major spt2^− promastigotes; experiment: microbe, parasite or virus in culture; assay type: cell-based, Leishmania major
Description: (§2) Log phase L. major LV39 WT and spt2 promastigotes were inoculated at 1.0×10^5 cells/ml and culture densities were determined 48 hours later.
as §1

[3] = system: L. major LV39 WT promastigotes; experiment: microbe, parasite or virus in culture; assay type: cell-based, Leishmania major
Description: as §2, §1
A classical isobologram was constructed by plotting EC50s of drugs either alone or in combination.

[4] = system: L. major LV39 WT promastigotes; experiment: Composition of free sterols by GC/MS, WT promastigotes; assay type: cell-based, Leishmania major; details: for 5-dehydroepisterol (%) / 14-methylfecosterol (%) / Cholesterol (%) / Episterol (%) / Ergosterol (%) / Total sterols/cell: 48 hours
Description: (§3) Log phase L. major LV39 WT and spt2^− promastigotes were grown in the presence or absence of ITZ or CLT. Culture densities were determined 48 hours later and total lipids were extracted and the composition of free sterols was determined by GC/MS as described in Materials and Methods. ND: not detectable. Each experiment was repeated at least 3 times and results from one representative set were shown.
(§4) Here WT and spt2^− parasites were grown in various concentrations of ITZ (0.001 nM to 1 μM) or CLT (10 nM to 5 μM). Effects of ITZ and CLT on growth, sterol composition and DRM were analyzed after 48 hours. Basically, culture densities were determined using a particle counter and drugs' effects on growth were assessed in comparison to control cells (no drug); sterol lipids were extracted and analyzed by GC/MS and the percentage of 14-methylfecosterol (among all detectable sterol lipids) was used to reflect changes in sterol composition (see Table 2). DRMs were also isolated and the percentage of GP63 that were insoluble at 4° C. was used as an indicator for the integrity of DRM (see FIG. 2). Two to four independent experiments were performed and the averaged results were plotted in FIG. 3.
(§5) Total lipids were extracted using the Folch's method [Folch, et al., 1957]. Briefly, promastigotes were harvested by centrifugation and washed once with PBS. Pellets were resuspended in chloroform:methanol (2:1) at 1.0×10^8 cells/ml with the addition of cholesta-3,5-diene (Sigma-Aldrich, FW 368.7) at 0.5 mg/10^8 cells (6.6×10^7/cell). After vortexing for 30 s, cell debris was removed by centrifugation (1000 g for 10 min) and samples were washed with 0.2 volume of 0.9% NaCl. After centrifugation, supernatants were removed and the organic phase solutions were dried under a stream of nitrogen. Samples were then dissolved in chloroform:methanol (1:2) at 1.0×10^9 cells/ml.
(§6) Electron impact gas chromatography/mass spectrometry (GC/MS) analyses of sterol lipids were performed on a Finnigan (San Jose, Calif.) SSQ-7000 single-stage quadrupole mass spectrometer with a Varian (Walnut Creek, Calif.) 3400 GC, which is controlled by Finnigan ICIS software operated on a DEC alpha station. The extracts in solution […] were injected in a splitless mode and analyzed by GC on a Restek (Bellefonte, Pa.) RTX-5 column (15 m, 0.33 mm id, […]). The initial temperature of GC was set at 80° C. for 1 min, increased to 220° C. at a rate of 50° C./min, and then raised to a final temperature of 280° C. at a rate of 10° C./min. The temperatures of the injector, transfer line of the GC column, and of the ion-source were set at 280° C., 280° C., and 240° C., respectively. The full scan mass spectra (50 to 500 Dalton) were acquired at a rate of 1 scan/0.25 Sec.

[5] = system: L. major spt2^− promastigotes; experiment: Composition of free sterols by GC/MS, spt2^− promastigotes; assay type: cell-based, Leishmania major; details: 48 hours
Description: as §3, §4, §5, §6

[6] = system: Leishmania major LV39 clone 5 promastigotes; experiment: Microtiter screen for synergy drugs (cellular ATP, luciferase based); assay type: cell-based; details: follow-up of class d hits
Description: Following inoculation, parasites were allowed to grow until late logarithmic phase. […] Parasites were inoculated without any drug, singly with the two prototypic synergistic drugs myriocin or itraconazole, or both drugs, at varying concentrations.

[7] = Leishmania major, 48 h, read-out: EC50 in spt2^−
[8] = Leishmania major, 48 h, LV39 WT promastigotes, 48 hours; read-out: EC50 in WT
[9] = spt2^− promastigotes, 48 hours; read-out: EC50 in spt2^−
[10] = LV39 WT promastigotes, 48 hours; read-out: EC50 in WT

CCCCCCCCCCCCCCCCCCOCC(COP(=O)([O-])OCC[N+](C)(C)C)OC (racemic) [Edelfosine, 1-O-octadecyl-2-O-methyl-rac-glycero-3-phosphocholine]
Sensitivity of ads1^− mutant in comparison to FV1 WT [1]: very similar EC50s; also recorded: little or no selectivity
EC50 [2, 7]: 5.4 µM
EC50 (WT)/EC50 (spt2^−) ([2]; ratio): 0.28
Selectivity against spt2^− parasites (in words) ([2]; spt2^− versus LV39 WT): failed to show strong selectivity
EC50 [3, 8]: 1.5 µM

OC1(c2ccc(-c3ccccc3)cc2)CN2CCC1CC2 (stereo not drawn) [3-(Biphenyl-4-yl)-3-hydroxyquinuclidine]
EC50 [2, 7]: 1.12 µM
EC50 (WT)/EC50 (spt2^−) ([2]; ratio): 1.4
Selectivity against spt2^− parasites (in words) ([2]; spt2^− versus LV39 WT): did not cause the extreme hypersensitivity
EC50 [3, 8]: 1.58 µM

C[C@@H]1[C@H](O)[C@@H](C)/C=C/C=C/C=C/C=C/C=C/C=C/C=C/[C@H](O[C@@H]2O[C@H](C)[C@@H](O)[C@H](N)[C@@H]2O)C[C@@H]2O[C@](O)(C[C@@H](O)C[C@@H](O)[C@H](O)CC[C@@H](O)C[C@@H](O)CC(=O)O[C@H]1C)C[C@H](O)[C@H]2C(=O)O [Amphotericin B]
EC50 (WT)/EC50 (spt2^−) ([2]; ratio): 1.9
EC50 [2, 9]: 0.022 µM
Selectivity against spt2^− parasites (in words) ([2]; spt2^− versus LV39 WT): nearly equally well
EC50 [3, 10]: 0.041 µM

CC[C@@H](C)[C@@H]1NC(=O)[C@@H]2CCCN2C(=O)[C@H](Cc2ccccc2)N(C)C(=O)[C@H](Cc2ccccc2)NC(=O)[C@H](C(C)C)N(C)C(=O)[C@@H]([C@H](C)CC)OC(=O)[C@H](C(C)(C)O)N(C)C(=O)[C@H](CC(C)C)NC(=O)[C@H](C(C)C)N(C)C1=O [Aureobasidin A] (cyclo(F[NMeF]P[aIle][NMeV]L[NMeVal(β-OH)][X1][NMeV]))
Sensitivity of ads1^− mutant in comparison to FV1 WT [1]: very similar EC50s
EC50 (WT)/EC50 (spt2^−) ([2]; ratio): 0.90
EC50 [2, 9]: 0.62 µM
EC50 [3, 10]: 0.56 µM

CC(C)[C@@H]1NC(=O)[C@H](Cc2ccccc2)NC(=O)[C@@H]2NC(=O)[C@H](Cc3ccccc3)NC(=O)[C@@H]3CCCN3C(=O)CNC(=O)[C@H](Cc3ccccc3)NC(=O)[C@@H]3CNCCCC[C@@H](C(=O)O)NC(=O)[C@@H]4NC(=O)[C@H](CC(N)=O)NC(=O)CNC(=O)[C@H]([C@@H](O)C(=O)O)NC(=O)[C@H](CSC[C@@H](NC(=O)[C@H](CCC(N)=O)NC(=O)[C@H](CCCNC(=N)N)NC(=O)[C@@H](N)CS[C@H]4C)C(=O)N[C@@H](CS[C@H]2C)C(=O)N3)NC1=O [Cinnamycin]
EC50 (WT)/EC50 (spt2^−) ([2]; ratio): 1.0
EC50 [2, 9]: 3.1 µM
Selectivity against spt2^− parasites (in words) ([2]; spt2^− versus LV39 WT): nearly equally well
EC50 [3, 10]: 3.1 µM

Clc1ccccc1C(c1ccccc1)(c1ccccc1)n1ccnc1 [Clotrimazole]
5-dehydroepisterol (%) ([4]; WT + 0.2 μM CLT): 63.7%
14-methylfecosterol (%) ([4]; WT + 0.2 μM CLT): 9.9%
Cholesterol (%) ([4]; WT + 0.2 μM CLT): 4.5%
Episterol (%) ([4]; WT + 0.2 μM CLT): 17.5%
Ergosterol (%) ([4]; WT + 0.2 μM CLT): 4.4%
Total sterols/cell ([4]; WT + 0.2 μM CLT): 3.3 × 10^8 /cell
5-dehydroepisterol (%) ([4]; WT + 0.5 μM CLT): 42.0%
14-methylfecosterol (%) ([4]; WT + 0.5 μM CLT): 47.1%
Cholesterol (%) ([4]; WT + 0.5 μM CLT): 3.9%
Episterol (%) ([4]; WT + 0.5 μM CLT): 5.1%
Ergosterol (%) ([4]; WT + 0.5 μM CLT): 1.9%
Total sterols/cell ([4]; WT + 0.5 μM CLT): 2.2 × 10^8 /cell
Growth (%) ([2]; spt2^− + 0.2 μM CLT, 48 hours): 93.8%
Growth (%) ([2]; spt2^− + 0.5 μM CLT, 48 hours): 62.8%
5-dehydroepisterol (%) ([5]; spt2^− + 0.2 μM CLT): 44.1%
14-methylfecosterol (%) ([5]; spt2^− + 0.2 μM CLT): 21.5%
Cholesterol (%) ([5]; spt2^− + 0.2 μM CLT): 20.2%
Episterol (%) ([5]; spt2^− + 0.2 μM CLT): 10.7%
Ergosterol (%) ([5]; spt2^− + 0.2 μM CLT): 3.5%
Total sterols/cell ([5]; spt2^− + 0.2 μM CLT): 3.5 × 10^8 /cell
5-dehydroepisterol (%) ([5]; spt2^− + 0.5 μM CLT): 23.9%
14-methylfecosterol (%) ([5]; spt2^− + 0.5 μM CLT): 50.3%
Cholesterol (%) ([5]; spt2^− + 0.5 μM CLT): 21.1%
Episterol (%) ([5]; spt2^− + 0.5 μM CLT): 3.5%
Ergosterol (%) ([5]; spt2^− + 0.5 μM CLT): 1.2%
Total sterols/cell ([5]; spt2^− + 0.5 μM CLT): 3.1 × 10^8 /cell
CLT concentration needed to achieve any noticeable effects on growth, sterol composition, or DRMs [3]: > 100 nM
Growth (%) [3]: 76.9% and 78.7%

CC(=O)N1CCN(c2ccc(OCC3COC(Cn4ccnc4)(c4ccc(Cl)cc4Cl)O3)cc2)CC1 (stereo not drawn) [Ketoconazole]
Sensitivity of ads1^− mutant in comparison to FV1 WT [1]: hypersensitive
Effect on sterol composition ([4]; LV39 WT, 5-10 nM): completely altered the sterol composition
EC50 [2, 7]: 0.01 µM
EC50 (WT)/EC50 (spt2^−) ([2]; ratio): 310
Effect of supplementation of ethanolamine or choline on the sensitivity in spt2^− parasites ([2]; spt2^− with EtN or choline): almost no effect
Effect on growth [3]: only minor effect on growth
EC50 ([3]; Leishmania major, 48 h, read-out: EC50 in WT): ~3.1 µM

CCn1nc(C(=O)O)c(=O)c2cc3c(cc21)OCO3 [cinoxacin]
Confirmation of synergy with itraconazole [6]: not confirmed

C=C(C)C(=O)C(=CC(=O)O)OC [penicillic acid]
Confirmation of synergy with itraconazole [6]: confirmed
Synergy effect with itraconazole [6]: ~2 fold

Mevinolin
EC50 (WT)/EC50 (spt2^−) ([2]; ratio): 1.0
EC50 ([2]; read-out: EC50 in spt2^−; spt2^− promastigotes, 48 hours): 15 µM
Selectivity against spt2^− parasites (in words) ([2]; spt2^− versus LV39 WT): did not cause the extreme hypersensitivity
EC50 ([3]; read-out: EC50 in WT; LV39 WT promastigotes, 48 hours): 15 µM
